For nine molecules, TGI and GI50 results are on record in PubChem BioAssay (NCI).

Some test systems named below: TK-10 renal; UACC-62 melanoma; HCT-15 colon; NCI-H460 lung; SNB-75 CNS; ACHN renal; RXF 393 renal; KM12 colon; A549 NSCLC; MALME-3M melanoma.
Holding throughout (test): NCI anticancer screen, dose series, 48 h

“And” between values parts separate entries of the source, which are not always exact repeats. Equal entries are not always repeated.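 Dose response: 5 concentrations. Exposure: 48 h. Format: 96-well plates. Endpoint: linear interpolation; highest concentration if not reached. Here, GI50 denotes the concentration required for 50% inhibition of growth. TGI: total growth inhibition.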 A value given as a limit tells only on which side of the number the result lay.

As for `S=c1nc(-c2nc(=S)[nH]c3c2CCCCCCCCCC3)c2c([nH]1)CCCCCCCCCC2`, the TGI in the test on TK-10 renal, in the test with UACC-62 melanoma, in the test on HCT-15 colon, in the test on NCI-H460 lung, in the test with SNB-75 CNS and in the test on ACHN renal was > 100 µM in each case. For the same molecule, the TGI in the test with RXF 393 renal, in the test on KM12 colon, in the test on A549 NSCLC and in the test on MALME-3M melanoma was > 100 µM in each case.

Consider `Cl.[Pt].[c-]1ccccc1-c1ccccn1.c1ccc(P(c2ccccc2)C([PH+](c2ccccc2)c2ccccc2)[PH+](c2ccccc2)c2ccccc2)cc1`, for which the GI50 with TK-10 renal is 1.74 µM; in the test on UACC-62 melanoma, 1.7 µM; with HCT-15 colon it was 2.81 µM; in the test with NCI-H460 lung it was 2.29 µM; in the test with SNB-75 CNS it was 1.64 µM; with ACHN renal, 1.84 µM. Also, the GI50 in the test on RXF 393 renal is 1.48 µM; in the test with KM12 colon, 2.48 µM; in the test with A549 NSCLC, 1.32 µM; with MALME-3M melanoma, 0.42 µM. In addition, the TGI with TK-10 renal is 15.5 µM; with UACC-62 melanoma it was 4.75 µM; in the test on HCT-15 colon it was > 100 µM; in the test on NCI-H460 lung it was 10 µM; in the test on SNB-75 CNS it was 23.5 µM; with ACHN renal it was 11.5 µM. For the same molecule, the TGI in the test on RXF 393 renal is 4.01 µM; in the test with KM12 colon it was 7.22 µM; in the test with A549 NSCLC, 15.1 µM; in the test on MALME-3M melanoma, 2.65 µM.

As for `Nc1ccc(-c2nc3ccc4[nH]ncc4c3c3c2CCCC3)cc1F`, the GI50 with TK-10 renal is 0.828 µM; in the test on UACC-62 melanoma it was 1.19 µM; in the test on HCT-15 colon it was 0.691 µM; in the test with NCI-H460 lung, 0.959 µM; with SNB-75 CNS it was 1.35 µM; in the test with ACHN renal, 0.316 µM. Moreover, the GI50 in the test with RXF 393 renal was 0.36 µM; with KM12 colon, 1.11 µM; in the test with A549 NSCLC, 1.04 µM; with MALME-3M melanoma, 1.74 µM. In addition, the TGI in the test on TK-10 renal was found to be 22.4 µM; in the test on UACC-62 melanoma, 6.71 µM; with HCT-15 colon, 8.05 µM; with NCI-H460 lung, 8.51 µM; with SNB-75 CNS, 3.42 µM; with ACHN renal it was 15.5 µM. Moreover, the TGI stood at 2 µM with RXF 393 renal, 6.3 µM with KM12 colon, 9.54 µM in the test with A549 NSCLC and 6.98 µM in the test with MALME-3M melanoma.

Turning to `CC1=NNC(=NCCN(C)C)C/C1=C/c1ccccc1Cl`, the TGI in the test on TK-10 renal, with UACC-62 melanoma, with HCT-15 colon, with NCI-H460 lung, with SNB-75 CNS and with ACHN renal was > 100 µM throughout. For the same molecule, the TGI with RXF 393 renal, in the test with KM12 colon, with A549 NSCLC and with MALME-3M melanoma was > 100 µM in each case.

Regarding `COc1ccc2cccc(C(=O)c3ccc(C)c4c3CCC4)c2c1`, the TGI was > 100 µM in the test on TK-10 renal; 56.5 µM in the test on UACC-62 melanoma; 53.3 µM in the test with HCT-15 colon; > 100 µM with NCI-H460 lung; > 100 µM in the test with SNB-75 CNS; > 100 µM in the test on ACHN renal. Also, the TGI with RXF 393 renal is 73.5 µM; in the test with KM12 colon it was > 100 µM; in the test with A549 NSCLC, > 100 µM; with MALME-3M melanoma, 72.8 µM.

As for `COc1ccc(C(=O)c2cc(OC)c(OC)c(OC)c2)cc1OC(C)=O`, the GI50 in the test on TK-10 renal is 59 µM; in the test with UACC-62 melanoma, 0.448 µM; in the test with HCT-15 colon it was < 0.0136 µM; in the test with NCI-H460 lung, 0.0379 µM; with SNB-75 CNS it was < 0.0145 µM; with ACHN renal it was 0.0379 µM. Also, the GI50 with RXF 393 renal was 0.0391 µM; in the test with KM12 colon, < 0.0133 µM; in the test on A549 NSCLC, 0.115 µM; with MALME-3M melanoma, 35.4 µM. The TGI in the test with TK-10 renal, with UACC-62 melanoma, in the test on HCT-15 colon, in the test on NCI-H460 lung, in the test with SNB-75 CNS and in the test with ACHN renal was > 100 µM in each case. Further, the TGI in the test with RXF 393 renal, in the test on KM12 colon, in the test on A549 NSCLC and in the test with MALME-3M melanoma was > 100 µM throughout.

With `C/C1=C\[C@H](C)C[C@H](C)OC(=O)C[C@H](c2ccc(O)cc2)NC(=O)[C@@H](Cc2c(Br)[nH]c3ccccc23)N(C)C(=O)[C@H](C)NC(=O)[C@@H](C)C1`, the GI50 in the test on TK-10 renal was 0.0982 µM; in the test on UACC-62 melanoma it was 0.0414 µM; in the test on HCT-15 colon, 0.488 µM; with NCI-H460 lung, 0.0126 µM; with SNB-75 CNS it was 0.0168 µM; in the test with ACHN renal, 0.0228 µM. The GI50 in the test on RXF 393 renal was 0.228 µM; in the test with A549 NSCLC it was 0.0318 µM; in the test on MALME-3M melanoma it was 0.032 µM. In addition, the TGI with TK-10 renal was 0.428 µM and 0.26 µM; with UACC-62 melanoma it was 0.9 µM and 1.44 µM; in the test on HCT-15 colon, 6.01 µM; in the test on NCI-H460 lung, 23.6 µM; in the test on SNB-75 CNS, 0.175 µM and 0.0335 µM; in the test with ACHN renal it was 0.0894 µM. Besides, the TGI is 0.464 µM and 0.615 µM in the test with RXF 393 renal; 39.8 µM in the test with KM12 colon; 0.404 µM and 0.196 µM in the test on MALME-3M melanoma.

For `CC(C)(C)N=C1CC(C)(C)c2ccccc2C(=Nc2ccccc2)S1`, the TGI in the test on TK-10 renal, with UACC-62 melanoma, in the test on HCT-15 colon, in the test on NCI-H460 lung, in the test with SNB-75 CNS and with ACHN renal was > 100 µM in each case. Moreover, the TGI with RXF 393 renal was > 100 µM; with KM12 colon it was > 100 µM; with A549 NSCLC, > 100 µM; with MALME-3M melanoma it was 96.5 µM.

With `C#CCN1C(=O)/C(=c2\sc3n(c2=O)C2C(NN=3)N(CC)C(=O)N2CC)c2ccccc21` (stereo not drawn), the GI50 was 14.1 µM with TK-10 renal; 0.453 µM in the test with UACC-62 melanoma; 0.394 µM with HCT-15 colon; 0.439 µM with NCI-H460 lung; 0.25 µM in the test on SNB-75 CNS; 0.65 µM with ACHN renal. The GI50 in the test on RXF 393 renal is 0.354 µM; with KM12 colon, 0.46 µM; in the test with A549 NSCLC, 0.968 µM; in the test on MALME-3M melanoma, 0.595 µM. Besides, the TGI in the test on TK-10 renal was 51.4 µM; in the test with UACC-62 melanoma, > 74.1 µM; in the test on HCT-15 colon it was > 100 µM; in the test on NCI-H460 lung it was > 100 µM; with SNB-75 CNS it was 0.997 µM; in the test with ACHN renal, > 58.2 µM. In addition, the TGI was 2.28 µM in the test with RXF 393 renal, > 100 µM in the test with KM12 colon, > 100 µM in the test on A549 NSCLC and > 100 µM with MALME-3M melanoma.
